Key:
Assay type in all cases: in vivo
[1] = test system: umbrella sedge (Cyperus difformis); experiment: Test B flooded paddy test; conditions: for Plant response rating, Flood, Sedge, Umbrella: 250 g ai/ha, flooded paddy test, visual rating on 0 to 100 scale (0 no effect, 100 complete control) after 13 to 15 days; for Plant response rating, Sedge, Umbrella: Flood (flooded paddy test), 13 to 15 days; for Sedge, Umbrella plant response rating: Flood, 31 g ai/ha, scale 0 to 100 (0 no effect, 100 complete control)
How it was run: (§1)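 Greenhouse-held for 13 to 15 days, treated pots were compared visually with controls and scored 0–100 (0, no effect). Treatment had been made into paddy water kept at 3 cm above the soil, with plants at the 2-leaf stage.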

[2] = test system: ducksalad (Heteranthera limosa); experiment: Test B flooded paddy test; conditions: for Plant response rating, Flood, Ducksalad: 250 g ai/ha, flooded paddy test, visual rating on 0 to 100 scale (0 no effect, 100 complete control) after 13 to 15 days; for Plant response rating, Ducksalad: Flood (flooded paddy test), 13 to 15 days; for Ducksalad plant response rating: Flood, 31 g ai/ha, scale 0 to 100 (0 no effect, 100 complete control)
How it was run: as §1

[3] = test system: rice (Oryza sativa); experiment: Test B flooded paddy test; conditions: for Plant response rating, Flood, Rice: 250 g ai/ha, flooded paddy test, visual rating on 0 to 100 scale (0 no effect, 100 complete control) after 13 to 15 days; for Plant response rating, Rice: Flood (flooded paddy test), 13 to 15 days; for Rice plant response rating: Flood, 31 g ai/ha, scale 0 to 100 (0 no effect, 100 complete control)
How it was run: as §1

[4] = test system: barnyardgrass (Echinochloa crus-galli); experiment: Test B flooded paddy test; conditions: for Plant response rating, Flood, Barnyardgrass: 250 g ai/ha, flooded paddy test, visual rating on 0 to 100 scale (0 no effect, 100 complete control) after 13 to 15 days; for Plant response rating, Barnyardgrass: Flood (flooded paddy test), 13 to 15 days; for Barnyardgrass plant response rating: Flood, 31 g ai/ha, scale 0 to 100 (0 no effect, 100 complete control)
How it was run: as §1

[5] = test system: giant foxtail (Setaria faberii); experiment: Test A pre-/postemergence plant response; conditions: for Foxtail, Giant plant response rating: visual injury, 0 to 100 scale (0 no effect, 100 complete control), approx. ten days
How it was run: (§2)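 Formulated test chemicals (non-phytotoxic solvent, surfactant) were sprayed onto soil right after planting and simultaneously onto young plants at one to two leaves, 2 to 10 cm tall. Plants stayed in the greenhouse about ten days; injury was then visually scored against untreated controls, from 0 (no effect) to 100 (complete control).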

[6] = test system: corn (Zea mays); experiment: Test A pre-/postemergence plant response; conditions: for Corn plant response rating: visual injury, 0 to 100 scale (0 no effect, 100 complete control), approx. ten days
How it was run: as §2

[7] = test system: large crabgrass (Digitaria sanguinalis); experiment: Test A pre-/postemergence plant response; conditions: for Crabgrass, Large plant response rating: visual injury, 0 to 100 scale (0 no effect, 100 complete control), approx. ten days
How it was run: as §2

[8] = test system: pigweed (Amaranthus retroflexus); experiment: Test A pre-/postemergence plant response; conditions: for Pigweed plant response rating: visual injury, 0 to 100 scale (0 no effect, 100 complete control), approx. ten days
How it was run: as §2

[9] = test system: velvetleaf (Abutilon theophrasti); experiment: Test A pre-/postemergence plant response; conditions: for Velvetleaf plant response rating: visual injury, 0 to 100 scale (0 no effect, 100 complete control), approx. ten days
How it was run: as §2

[10] = test system: morningglory (Ipomoea spp.); experiment: Test A pre-/postemergence plant response; conditions: for Morningglory plant response rating: visual injury, 0 to 100 scale (0 no effect, 100 complete control), approx. ten days
How it was run: as §2

[11] = test system: barnyardgrass (Echinochloa crus-galli); experiment: Test A pre-/postemergence plant response; conditions: for Barnyardgrass plant response rating: visual injury, 0 to 100 scale (0 no effect, 100 complete control), approx. ten days
How it was run: as §2

[12] = test system: wheat (Triticum aestivum); experiment: Test A pre-/postemergence plant response; conditions: for Wheat plant response rating: visual injury, 0 to 100 scale (0 no effect, 100 complete control), approx. ten days
How it was run: as §2

[13] = 62 g ai/ha, scale of 0 to 100 where 0 is no effect and 100 is complete control
[14] = 125 g ai/ha, scale 0 to 100, 0 is no effect, 100 is complete control
[15] = Postemergence, 125 g ai/ha, 0 to 100 scale where 0 is no effect and 100 is complete control
[16] = Preemergence, 125 g ai/ha, 0 to 100 scale, 0 = no effect, 100 = complete control
[17] = Preemergence, 500 g ai/ha, 0 to 100 scale, 0 = no effect, 100 = complete control

O=C1CCCC(O)=C1C(=O)c1cnc(-c2ccc(F)c(F)c2)n(C2CCCCC2)c1=O [Compound 198]
Plant response rating, Flood, Sedge, Umbrella [1]: 80 | Plant response rating, Sedge, Umbrella [1, 13]: 20 | Plant response rating, Sedge, Umbrella [1, 14]: 80 | Sedge, Umbrella plant response rating [1]: 20 | Plant response rating, Flood, Ducksalad [2]: 95 | Plant response rating, Ducksalad [2, 13]: 50 | Plant response rating, Ducksalad [2, 14]: 85 | Ducksalad plant response rating [2]: 40 | Plant response rating, Flood, Rice [3]: 50 | Plant response rating, Rice [3, 13]: 20 | Plant response rating, Rice [3, 14]: 20 | Rice plant response rating [3]: 15 | Plant response rating, Flood, Barnyardgrass [4]: 35 | Plant response rating, Barnyardgrass [4, 13]: 0 | Plant response rating, Barnyardgrass [4, 14]: 30 | Barnyardgrass plant response rating [4]: 0 | Plant response rating, Foxtail, Giant [5, 15]: 60 | Foxtail, Giant plant response rating ([5]; Postemergence, 500 g ai/ha): 90 | Plant response rating, Foxtail, Giant [5, 16]: 70 | Plant response rating, Foxtail, Giant [5, 17]: 70 | Plant response rating, Corn [6, 15]: 0 | Corn plant response rating ([6]; Postemergence, 500 g ai/ha): 30 | Plant response rating, Corn [6, 16]: 0 | Plant response rating, Corn [6, 17]: 20 | Plant response rating, Crabgrass, Large [7, 15]: 70 | Crabgrass, Large plant response rating ([7]; Postemergence, 500 g ai/ha): 100 | Plant response rating, Crabgrass, Large [7, 16]: 10 | Plant response rating, Crabgrass, Large [7, 17]: 90 | Plant response rating, Pigweed [8, 15]: 90 | Pigweed plant response rating ([8]; Postemergence, 500 g ai/ha): 100 | Plant response rating, Pigweed [8, 16]: 10 | Plant response rating, Pigweed [8, 17]: 100 | Plant response rating, Velvetleaf [9, 15]: 100 | Velvetleaf plant response rating ([9]; Postemergence, 500 g ai/ha): 100 | Plant response rating, Velvetleaf [9, 16]: 0 | Plant response rating, Velvetleaf [9, 17]: 80 | Plant response rating, Morningglory [10, 15]: 100 | Morningglory plant response rating ([10]; Postemergence, 500 g ai/ha): 100 | Plant response rating, Morningglory [10, 16]: 0 | Plant response rating, Morningglory [10, 17]: 30 | Plant response rating, Barnyardgrass [11, 15]: 70 | Barnyardgrass plant response rating ([11]; Postemergence, 500 g ai/ha): 100 | Plant response rating, Barnyardgrass [11, 16]: 0 | Plant response rating, Barnyardgrass [11, 17]: 50 | Plant response rating, Wheat [12, 15]: 0 | Wheat plant response rating ([12]; Postemergence, 500 g ai/ha): 0 | Plant response rating, Wheat [12, 16]: 0 | Plant response rating, Wheat [12, 17]: 20

CCc1ccc(-n2c(-c3cccc(F)c3)ncc(C(=O)C3=C(O)CCCC3=O)c2=O)cc1 [Compound 204]
Plant response rating, Flood, Sedge, Umbrella [1]: 95 | Plant response rating, Sedge, Umbrella [1, 13]: 75 | Plant response rating, Sedge, Umbrella [1, 14]: 90 | Sedge, Umbrella plant response rating [1]: 70 | Plant response rating, Flood, Ducksalad [2]: 100 | Plant response rating, Ducksalad [2, 13]: 70 | Plant response rating, Ducksalad [2, 14]: 90 | Ducksalad plant response rating [2]: 50 | Plant response rating, Flood, Rice [3]: 60 | Plant response rating, Rice [3, 13]: 0 | Plant response rating, Rice [3, 14]: 0 | Rice plant response rating [3]: 0 | Plant response rating, Flood, Barnyardgrass [4]: 60 | Plant response rating, Barnyardgrass [4, 13]: 15 | Plant response rating, Barnyardgrass [4, 14]: 25 | Barnyardgrass plant response rating [4]: 10 | Plant response rating, Foxtail, Giant [5, 15]: 30 | Foxtail, Giant plant response rating ([5]; Postemergence, 500 g ai/ha): 100 | Plant response rating, Foxtail, Giant [5, 16]: 20 | Plant response rating, Foxtail, Giant [5, 17]: 90 | Plant response rating, Corn [6, 15]: 0 | Corn plant response rating ([6]; Postemergence, 500 g ai/ha): 10 | Plant response rating, Corn [6, 16]: 20 | Plant response rating, Corn [6, 17]: 20 | Plant response rating, Crabgrass, Large [7, 15]: 60 | Crabgrass, Large plant response rating ([7]; Postemergence, 500 g ai/ha): 100 | Plant response rating, Crabgrass, Large [7, 16]: 40 | Plant response rating, Crabgrass, Large [7, 17]: 100 | Plant response rating, Pigweed [8, 15]: 100 | Pigweed plant response rating ([8]; Postemergence, 500 g ai/ha): 100 | Plant response rating, Pigweed [8, 16]: 100 | Plant response rating, Pigweed [8, 17]: 100 | Plant response rating, Velvetleaf [9, 15]: 100 | Velvetleaf plant response rating ([9]; Postemergence, 500 g ai/ha): 100 | Plant response rating, Velvetleaf [9, 16]: 50 | Plant response rating, Velvetleaf [9, 17]: 90 | Plant response rating, Morningglory [10, 15]: 30 | Morningglory plant response rating ([10]; Postemergence, 500 g ai/ha): 100 | Plant response rating, Morningglory [10, 16]: 0 | Plant response rating, Morningglory [10, 17]: 80 | Plant response rating, Barnyardgrass [11, 15]: 100 | Barnyardgrass plant response rating ([11]; Postemergence, 500 g ai/ha): 100 | Plant response rating, Barnyardgrass [11, 16]: 30 | Plant response rating, Barnyardgrass [11, 17]: 80 | Plant response rating, Wheat [12, 15]: 0 | Wheat plant response rating ([12]; Postemergence, 500 g ai/ha): 40 | Plant response rating, Wheat [12, 16]: 20 | Plant response rating, Wheat [12, 17]: 40
